Assay results as given in article PMC12040169 (PLOS Biology, 2025).

assay: in vitro; details: human, hela cells, % viability

SMILES | viability at 28.5 h, 10 µM [%]
CC1CCc2nc(NC(=O)Cn3cccc(C(=O)NC4CCCCC4)c3=O)sc2C1 (stereo not shown) [CBK286064] | 101
Cc1cccc(-c2cn3ccnc3c(N3CCN(c4ccccn4)CC3)n2)c1 [CBK066478] | 89.3
COc1ccc2c(c1)C1(CC(=O)N(CC(=O)N(C)C)C1=O)C(=O)N2Cc1ccc2ccccc2n1 (stereo not shown) [CBK075923] | 93.7
O=S1(=O)N=C(c2c(O)nc3ccccc3c2O)Nc2ccccc21 [CBK019929] | 90.7
O=C1CNC(=O)C2(C/C=C/C[C@H]3COCC[C@H]3N1)CCN(C(=O)c1ccc(=O)[nH]n1)CC2 [CBK292161] | 110
Cc1noc(C)c1NC(=O)c1c(-c2ccccc2)noc1C [CBK200314] | 91.8
c1cc(CCNc2nccn3ccnc23)ccn1 [CBK037976] | 99.2
O=C(N[C@H]1CCN2C(=O)[C@@H](Cc3ccccc3)NC(=O)[C@H]12)c1cnccn1 [CBK289231] | 83.6
Brc1ccc(Nc2ncnc3nc[nH]c23)cc1 [CBK287386] | 105
CCn1nc(C)c(C(C)NC(=O)c2ccnn2C(F)F)c1C (stereo not shown) [CBK281535] | 88.4
O=C(O)c1ccc(COc2ccc3ccccc3c2/C=C2/NC(=O)N(c3ccccc3)C2=O)cc1 [CBK265124] | 101
CC(C)C[C@H](NC(=O)COc1ccc2nc3n(c(=O)c2c1)CCCCC3)C(=O)O [CBK286656] | 88.3
Cc1cc(COc2cc(N3CCCN(Cc4ccc5c(c4)OCO5)CC3)ncn2)no1 [CBK083335T] | 95.7
CC(C)(C)OC(=O)NCc1ccc(CNCc2ccc(-c3ccccc3)cc2)cc1 [CBK056706] | 96.8
CC(C)(C)OC(=O)N1CCC(OCc2cn(-c3ccc(S(C)(=O)=O)cc3)nn2)CC1 [CBK149478] | 98.1
Cc1ccc(NC(=O)c2cncc(-c3ccc(C(=O)N4CCOCC4)cc3)c2)c(O)c1 [CBK160208] | 84.3
N=C(N)NCC(=O)N(CCc1cc(C(F)(F)F)cc(C(F)(F)F)c1)c1cccc2ccccc12 [CBK001122T] | 105
c1ccc(CCN2CCC(c3nc(-c4ccccc4)no3)CC2)cc1 [CBK051454] | 89.8
O=C1CC(/C=C/c2ccccc2)Cc2[nH]c(=O)c(C(=O)O)cc21 (stereo not shown) [CBK286933] | 92.9
Cc1cccn2c(=O)c(/C=C3\SC(=S)N(Cc4ccccc4)C3=O)c(NCCCn3ccnc3)nc12 [CBK263833] | 102
Cc1ccc2n1CCN(C(=O)c1cccc(-n3cnnc3)c1)C2C(C)C (stereo not shown) [CBK282444] | 105
CCC(=O)N(C)C1CCN(c2ncnc3ccccc23)CC1 [CBK304829] | 91.8

SMILES | viability at 28.5 h, 10 µM [%]
Cc1ccc(CNCc2cc3c(C)nn(-c4ccccc4)c3[nH]c2=O)o1 [CBK282896] | 90.8
Oc1cccc(Sc2nccc(C(F)(F)F)n2)c1 [CBK093801] | 96.6
O=C(NC(S(=O)O)C(F)(F)F)OCc1ccccc1 (stereo not shown) [CBK018979] | 87
Cc1cc(NC(=O)CN(C)C(=O)Cc2cccc(C(F)(F)F)c2)no1 [CBK305564] | 80.5
CCCC/C=C/c1cnc2[nH]c(=O)n([C@H](CO)C(C)C)c2n1 [CBK064970] | 95
CC(=O)Nc1cccc(-c2cc(N3CCN(C(=O)c4ccco4)CC3)ncn2)c1 [CBK036959] | 93.7
CC1CCN(C(=O)Cn2c(=O)n(C(C)C)c3ncccc32)CC1 [CBK283698] | 89.5
CC(C)NC(=O)C1CC2CCC1CC21NC(=O)c2ccccc2O1 (stereo not shown) [CBK284353] | 83.5
Cn1cc(-c2ncc(OCCOc3ccccc3)nc2N)cn1 [CBK145171] | 108
O=c1c2[nH]cc(-c3ccccc3)c2ncn1CCc1ccccc1 [CBK288025] | 76.9
CCc1c(C)nc(C)nc1N1CCCn2nc(C(O)C3CC3)cc2C1 (stereo not shown) [CBK306778] | 100
Cc1ccc(C(=O)N2CCCN(C(=O)CN3CCCC3)C2)cc1 [CBK039081] | 87.2
O=C(c1cnc(-c2ccccc2)c(-c2cccnc2)c1)N1CCC(S(=O)(=O)c2ccccc2)C1 (stereo not shown) [CBK036685] | 103
COc1nccnc1OC1CCN(CCCC#N)CC1 [CBK084255] | 90
CC(=O)Nc1ccc(CN(C)c2c(C)nc3ccc(C(=O)N(C)CCN(C)C)cn23)cc1 [CBK147107] | 109
CCn1c2ccccc2c2cc(/C=N/c3cc(S(=O)(=O)c4ccc(O)c(/N=C/c5ccc6c(c5)c5ccccc5n6CC)c4)ccc3O)ccc21 [CBK261229] | 76.5
Cc1cc(C2CCCCCN2Cc2c(C)nn(C)c2C)on1 (stereo not shown) [CBK282967] | 99.7
COc1cc(CN2CCC(N3CCN(c4ccccc4)CC3)CC2)ccc1OCc1ccccc1 [CBK264655G] | 95.6
O=C(c1ccc2c(c1)CCO2)N1CCC(S(=O)(=O)c2ccc(-c3ccccc3)cc2)CC1 [CBK131957] | 109
CCCCn1cc(CN(C)C)c2c(C)ccnc21 [CBK008697] | 102
Cc1cc(S(=O)(=O)N2CCN(CCO)C(C)C2)sc1Cl (stereo not shown) [CBK304074] | 91.4
CCS(=O)(=O)Nc1cc([N+](=O)[O-])ccc1OC [CBK111343] | 97

SMILES | viability at 28.5 h, 10 µM [%]
O=C1CCCN1c1ccc(CN2CCN(C3CCCC3)C(=O)C2)cc1 [CBK281908] | 96.2
COC(=O)CSc1nnc(-c2cc(Cl)ccc2OC)[nH]1 [CBK270248] | 97
CC(C)c1nc2c(n1C)CCN(Cc1cc(=O)n3ccccc3n1)C2 [CBK305061] | 92.6
CN1CC=C(/C=C/c2c[nH]c3ccccc23)CC1 [CBK283602] | 89.4
O=C(O)c1ccccc1CSc1ccccn1 [CBK270213] | 98
Cc1cccc2c1CC(=O)NC21CCN(CC(=O)c2ccc(F)cc2)CC1 [CBK039946] | 96
COc1ccc(CCNC(=O)CSc2nc(N)c3c4c(sc3n2)CCCC4)cc1 [CBK095784] | 94.2
Cc1cc(OCC(O)CN(Cc2ccccc2)C(C)(C)C)ccc1[N+](=O)[O-] (stereo not shown) [CBK086757] | 99.6
O=C(COc1ccc(S(=O)(=O)N2CCCCC2)cc1)NCc1ccccn1 [CBK268517] | 91.6
Cc1ccc(-c2nccnc2OCCOc2ccccc2)c(C)c1 [CBK106991] | 86.1
CCCC(=O)Nc1ccccc1NC(=O)c1ccc2c(c1)OCO2 [CBK265841] | 103
CN(C)C(=O)c1ccc(-c2ncc(OCc3cccs3)nc2N)cc1 [CBK145187] | 102
CCC(CCO)CNc1ncnc2ccc(S(C)(=O)=O)cc12 (stereo not shown) [CBK305157] | 84
CN(C(=O)c1ccc2c(c1)NC(=O)CS2)c1ccccc1 [CBK296612] | 105
Cn1ccc(NC(=O)c2cccc(S(=O)(=O)N3CCCC3)c2)n1 [CBK306032] | 104
Cc1ccc(C(=O)Nc2ncn(CC(=O)N3CCCCCC3)n2)s1 [CBK304951] | 98.2
CN1CCN(NC(=O)c2cc(-c3ccc(Cl)cc3)[nH]n2)CC1 [CBK116553] | 90.8
CCSc1nc(N2CCNC[C@@H]2C)ccc1C(F)(F)F [CBK003986A] | 96.1
Nc1ncc(-c2cccs2)nc1-c1ccc(C(=O)O)cc1 [CBK064133] | 91.4
CCn1cc([C@H]2CN(C)C[C@@H]2N(C)C)c2ccccc21 [CBK285468] | 108
CN(CCOC(=O)c1cccs1)C(C)(C)C [CBK027559C] | 88.6
O=C(c1ccc(-c2ccc(F)cc2)o1)N1CCC(n2c(=O)oc3ccccc32)CC1 [CBK286175] | 104

SMILES | viability at 28.5 h, 10 µM [%]
O=C(NC(=O)N1CCC2(CC1)NCCc1c2[nH]c2ccc(O)cc12)c1ccccc1 [CBK046936] | 87.4
O=C(O)CCSc1cccc(C(F)(F)F)c1 [CBK012986] | 111
Nc1cc(C(=O)c2ccc(Br)c(N)c2)ccc1Cl [CBK269708] | 86.6
Cc1cnn(-c2cc(N3CCC(n4cc(C5CC5)nn4)CC3)ncn2)c1 [CBK306721] | 96.2
OCCSCc1ccc2nonc2c1 [CBK020617] | 107
O=C1Nc2ccc(-c3ccsc3)cc2C(=O)N2CC[C@H](NC(=O)N3CCOCC3)[C@@H]12 [CBK289338] | 109
O=C(Nc1ccc(S(=O)(=O)NCc2ccncc2)cc1)c1ccccc1Cl [CBK269664] | 91.5
CC(=O)NCC1CC(c2ccc(C3=CCN(C(C)=O)CC3)cc2)=NO1 (stereo not shown) [CBK010245] | 86.8
O=C(Nc1ccncc1)c1cc(-c2ccncc2)nc2ccccc12 [CBK287787] | 100
CN(C)CCN(C)S(=O)(=O)c1ccc(C(C)(C)C)cc1 [CBK059035T] | 94.7
Cn1cc(NC(=O)CCn2c(C(F)(F)F)cc3cccnc32)cn1 [CBK284866] | 92.5
CCOc1ccc(Cl)cc1CNc1nnnn1CC [CBK288128] | 92.9
COc1cc(NS(=O)(=O)c2ccc(Nc3nc(-c4sc(N)nc4C)cs3)cc2)nc(OC)n1 [CBK262796] | 91.2
c1ccc(CSc2nc3ccccc3s2)nc1 [CBK027737] | 76.2
CCn1c(=O)n(CCC(N)=O)c2cc(S(=O)(=O)N(C)C)ccc21 [CBK305577] | 99.6
CCCCSc1nc(N)cc(N2CCCN(C(=O)C3CCCO3)CC2)n1 (stereo not shown) [CBK307209] | 86.8
C[C@@H]1CN(C(=O)c2cn(C)c3ccccc23)C[C@H](C)O1 [CBK200235] | 88.9
O=C(O)c1ccc(N2C(=O)CC(N3CCC(Cc4ccccc4)CC3)C2=O)cc1 (stereo not shown) [CBK273484] | 93.4
O=C1COc2ccc(S(=O)(=O)NCCOc3ccccc3)cc2N1 [CBK268480] | 95.9
Cc1cc(Cl)c(S(=O)(=O)N(C)C)cc1OCC(=O)Nc1ccccc1 [CBK269705] | 89
CCCCOc1ccc(C(N)CC(=O)O)cc1 (stereo not shown) [CBK262915] | 86.8
O=S(=O)(Nc1ccc(-c2csnn2)cc1)c1ccc(F)cc1 [CBK050482] | 92.1
